In US20100130736A1, “METHODS OF CREATING AN INDEX” (priority 2008, published 2010):
Like-named read-outs stand apart in the source and are kept apart here. Where no end group is shown, it is not given here.

Key:
Assay type in all cases: cell-based, human
quiescent A431 cells = experiment: Epic label-free DMR two-step assay, antagonist mode: modulation of marker-induced DMR signals in quiescent A431 cells
Method: (§1) Cells were typically grown using ˜1 to 2×10^4 cells per well at passage 3 to 15 suspended in 50 μl of the corresponding culture medium in the biosensor microplate, and were cultured at 37° C. under air/5% CO2 for ˜1 day. Except for A431, which was subject to ˜20 hr starvation through continuous culture in the serum-free DMEM, the other cell types were directly assayed without starvation. The confluency for all cells at the time of assays was ˜95% to 100%.
(§2) Epic® wavelength interrogation system (Corning Inc., Corning, N.Y.) was used for whole cell sensing. This system consists of a temperature-control unit, an optical detection unit, and an on-board liquid handling unit with robotics. The detection unit is centered on integrated fiber optics, and enables kinetic measures of cellular responses with a time interval of ±15 sec.
(§3) For biosensor cellular assays, molecule solutions were made by diluting the stored concentrated solutions with the HBSS (1× Hanks balanced salt solution, plus 20 mM Hepes, pH 7.1), and transferred into a 384 well polypropylene molecule storage plate to prepare a molecule source plate. Both molecule and marker source plates were made separately when a two-step assay was performed. In parallel, the cells were washed twice with the HBSS and maintained in 30 μl of the HBSS to prepare a cell assay plate. Both the cell assay plate and the molecule and marker source plate(s) were then incubated in the hotel of the reader system. After ˜1 hr of incubation the baseline wavelengths of all biosensors in the cell assay microplate were recorded and normalized to zero. Afterwards, a 2 to 10 minute continuous recording was carried out to establish a baseline, and to ensure that the cells reached a steady state. Cellular responses were then triggered by pipetting 10 μl of the marker solutions into the cell assay plate using the on-board liquid handler.
To study the influence of molecules on a marker-induced response, a second stimulation with the marker at a fixed dose (typically at EC80 or EC100) was applied. The resonant wavelengths of all biosensors in the microplate were normalized again to establish a second baseline, right before the second stimulation. The two stimulations were usually separated by ˜1 hr. All studies were carried out at a controlled temperature (28° C.). At least two independent sets of experiments, each with at least three replicates, were performed. […]
A first panel of markers was contacted with quiescent A431 cells at concentrations close to each of the marker's EC80 or EC100, and DMR measurements were obtained with and EPIC® system. This panel of markers was selected from a library of markers identified in A431 cells using Epic® cellular assays. This panel included epidermal growth factor (EGF), epinephrine, nicotinic acid, and histamine. Each of these markers leads to a wide array of cell signaling. […] Each DMR signal represents an averaged response of 4 replicates.

A549 cells [1] = experiment: Epic DMR agonist mode (primary profile, target panning) in A549 cells; conditions: for ligand-induced DMR signal (second ligand panel): FIG. 8: 40 μM pinacidil, 250 μg/ml poly (I:C), 8 μM PMA, 16 μM forskolin
From the text: as §2, §3
First, a panel of ligands targeting GPCRs, each at 10 μM concentration, was chosen, and examined their actions on the A549 cells using DMR measurements with the Epic® system. The ligand panel included the four P2Y agonists ADP, […], UTP and UDP, the adenosine receptor agonist adenosine, the calcium sensing receptor agonist spermine, the histamine receptor agonist histamine, the adrenergic receptor agonist epinephrine, the free fatty acid receptor agonist elaidic acid, the lipoxin receptor agonist lipoxin A4, the bradykinin receptor agonist bradykinin, the adrenodullin receptor agonist adrenodullin, the PAR1 agonist SFLLR-amide, the angiotensin receptor agonist angiotensin, the neuropeptide Y receptor agonist neuropeptide Y, and the PAR2 agonist SLIGKV-amide.
Next, a second ligand panel was chosen, and examined their actions on the A549 cells using DMR measures with the Epic® system. The panel included the protein kinase C activator PMA, the endogenous KATP ion channel activator pinacidil, the adenylyl cyclase activator forskolin, and endogenous Toll-like receptor (TLR) activator poly(I:C).
A DMR index was generated for four ligand molecules. Quiescent A431 and proliferating A549 cells were separately exposed to the ligand molecules for about 1 hr to generate their primary profiles, followed by stimulation with each marker at a fixed concentration (as mentioned in FIGS. 7 and 8) for another 1 hr or so to generate secondary profiles of the molecule against the panels of markers in both types of cells. Next, one or more specific DMR parameters were chosen as a readout for plotting the DMR index of the molecule. For the pinacidil DMR response in A549, the amplitude of the N-DMR (i.e., the amplitude 30 min after stimulation) was chosen. For the poly(I:C) DMR response in A549, the amplitude of the late DMR (i.e., the amplitude 50 min after stimulation) was chosen. For the PMA response in A549, the late DMR amplitude (i.e., the amplitude 50 min after stimulation) was chosen. For the SLIGKV-amide DMR response in A549, the P-DMR amplitude (i.e., the amplitude 20 min after stimulation) was chosen. For the forskolin response in A549 cells, the P-DMR amplitude (i.e., the amplitude 50 min after stimulation) was chosen. For the histamine response in A549, both the early DMR amplitude (i.e., amplitude 10 min after stimulation) and the late response (i.e., the amplitude 30 min after stimulation) were chosen. For the epinephrine response in A431, the P-DMR amplitude (i.e., the amplitude 50 min after stimulation) was chosen.

A549 cells [2] = experiment: Epic label-free DMR two-step assay, antagonist mode: modulation of marker-induced DMR signals in A549 cells
Method: as §1, §2, §3
To study the influence of molecules on a marker-induced response, a second stimulation with the marker at a fixed dose (typically at EC80 or EC100) was applied. The resonant wavelengths of all biosensors in the microplate were normalized again to establish a second baseline, right before the second stimulation. The two stimulations were usually separated by ˜1 hr. All studies were carried out at a controlled temperature (28° C.). At least two independent sets of experiments, each with at least three replicates, were performed.
A second panel of markers was contacted with A549 cells at concentrations close to each of the marker's EC80 or EC100, and DMR measurements were obtained with and EPIC® system. This panel included poly(I:C), SLIGKV-amide, pinacidil, PMA, histamine, and forskolin. Each of these markers also leads to a wide array of cell signaling. Using Epic® cellular assays in conjunction with chemical biology and cell biology approach similar to the EGFR DMR mentioned above, we have determined the pathway(s) and network interaction(s) that is accounted for each marker-induced DMR signal in A549 cells. The main observations are summarized below. Poly(I:C) is an agonist for endogenous Toll-like receptor(s) in A549, whose activation leads to IKK pathway and AKT pathway. SLIGKV-amide is an agonist for endogenous protease activated receptor subtype 2 (PAR2) in A549, whose activation leads to Gq-, Gi- and G12/13-mediated signaling. Pinacidil is an opener for endogenous ATP-sensitive potassium (KATP) ion channel in A549, whose activation leads to Rho- and JAK-mediated signaling. PMA is an activator for protein kinase C (PKC), whose activation leads to PKC pathway and degranulation. Histamine is a natural agonist for endogenous histamine receptors (dominantly H1R, and possibly H3R), whose activation leads to dual signaling, possibly through Gq and Gi mediated signaling in A549. Forskolin is an activator for adenylyl cyclases, whose activation leads to cAMP-PKA pathway in A549. […] Each DMR signal represents an averaged response of 4 replicates. […]

[3] = quiescent A431, 32 nM EGF, ligand 10 μM, about 1 hr pretreatment
[4] = A549, each ligand at 10 μM, FIGS. 3A and 3B
[5] = A431, ~1 hr pretreatment with the molecule
[6] = quiescent A431, 10 μM, score scaled from percent modulation (10% = 1)
[7] = 10 μM, score scaled from percent modulation (10% = 1)
[8] = ~1 hr pretreatment with the molecule

## CC(=O)c1c(O)c(C)c(O)c(Cc2c(O)c3c(c(C(=O)/C=C/c4ccccc4)c2O)OC(C)(C)C=C3)c1O [rottlerin]
Quiescent A431 cells; [3]
  effect on the N-DMR of the EGF DMR signal (in words): part of the early N-DMR event
  effect on the early P-DMR event of the EGF DMR signal (in words): specifically caused the truncation

## O=c1ccn([C@@H]2O[C@H](COP(=O)(O)OP(=O)(O)O)[C@@H](O)[C@H]2O)c(=O)[nH]1 [UDP]
A549 cells [1]; [4]
  ligand-induced DMR signal (GPCR ligand panel): robust DMR signals

## neuropeptide Y: neuropeptide Y receptor agonist
A549 cells [1]; [4]
  ligand-induced DMR signal (GPCR ligand panel): robust DMR signals

## SFLLR-amide
A549 cells [1]; [4]
  ligand-induced DMR signal (GPCR ligand panel): robust DMR signals

## CNC[C@H](O)c1ccc(O)c(O)c1 [epinephrine]
A549 cells [1]
  ligand-induced DMR signal (GPCR ligand panel): robust DMR signals

## poly(I:C)
A549 cells [1]; A549
  ligand-induced DMR signal (second ligand panel): robust DMR signals

## CNCCNS(=O)(=O)c1cccc2cnccc12 [H-8]
Quiescent A431 cells; [5]
  effect on the epinephrine response (in words): less effective at attenuating
  effect on the histamine response (in words): less effective at attenuating
Quiescent A431 cells; [6]
  modulation index score, EGF (N-DMR): −2
  modulation index score, EGF (P-DMR): 0.3
  modulation index score, epinephrine: −1.6
  modulation index score, histamine: 1.6
  modulation index score, nicotinic acid: 1
A549 cells [2]; [7]
  modulation index score, PMA: 2.2
  modulation index score, SLIGKV-amide: 3.2
  modulation index score, forskolin: 2
  modulation index score, histamine (early P-DMR): 3.8
  modulation index score, histamine (late P-DMR): 6.5
  modulation index score, pinacidil: −7.2
  modulation index score, poly(I:C): 1.8

## SLIGKV-NH2
A549 cells [1]; [4]
  ligand-induced DMR signal (GPCR ligand panel): robust DMR signals

## C#Cc1cccc(Nc2ncnc3cc(OC)c(OC)cc23)c1 [BML-265]
Quiescent A431 cells; [3]
  effect on the EGF response / DMR signal induced by EGF (in words): almost completely blocked

## NCCCNCCCCNCCCN [spermine]
A549 cells [1]; [4]
  ligand-induced DMR signal (GPCR ligand panel): robust DMR signals

## CCCCCCCC/C=C/CCCCCCCC(=O)O [elaidic acid]
A549 cells [1]; [4]
  ligand-induced DMR signal (GPCR ligand panel): robust DMR signals

## Nc1ncnc2c1ncn2[C@@H]1O[C@H](COP(=O)(O)OP(=O)(O)O)[C@@H](O)[C@H]1O [ADP]
A549 cells [1]; [4]
  ligand-induced DMR signal (GPCR ligand panel): robust DMR signals

## COc1cc2ncnc(Nc3cccc(Cl)c3)c2cc1OC [AG1478]
Quiescent A431 cells; [3]
  effect on the EGF response / DMR signal induced by EGF (in words): almost completely blocked

## adrenodullin: adrenodullin receptor agonist (YRQSMNNFQGLRSFGCRFGTCTVQKLAHQIYQFTDKDKDNVAPRSKISPQGY; ends and bridges not checked; cysteine pairing not given here; UniProt P35318 95-146, looked up)
A549 cells [1]; [4]
  ligand-induced DMR signal (GPCR ligand panel): robust DMR signals

## Nc1ncnc2c1ncn2[C@@H]1O[C@H](CO)[C@@H](O)[C@H]1O [adenosine]
A549 cells [1]; [4]
  ligand-induced DMR signal (GPCR ligand panel): robust DMR signals

## Nc1ncnc2c1ncn2[C@@H]1O[C@H](COP(=O)(O)OP(=O)(O)OP(=O)(O)O)[C@@H](O)[C@H]1O [AT]
A549 cells [1]; [4]
  ligand-induced DMR signal (GPCR ligand panel): robust DMR signals

## CCCCCCCCCCCCCC(=O)O[C@@H]1[C@@H](C)[C@@]2(O)[C@@H](C=C(CO)C[C@]3(O)C(=O)C(C)=C[C@@H]23)[C@@H]2C(C)(C)[C@]12OC(C)=O [PMA, Phorbol 12-myristate 13-acetate]
A549 cells [1]; A549
  ligand-induced DMR signal (second ligand panel): robust DMR signals

## NCCc1c[nH]cn1 [histamine]
A549 cells [1]; [4]
  ligand-induced DMR signal (GPCR ligand panel): robust DMR signals

## CCCCC[C@H](O)/C=C/C=C\C=C\C=C\[C@@H](O)[C@@H](O)CCCC(=O)O [lipoxin A4]
A549 cells [1]; [4]
  ligand-induced DMR signal (GPCR ligand panel): robust DMR signals

## CC(N/C(=N\C#N)Nc1ccncc1)C(C)(C)C (stereo not drawn) [pinacidil]
A549 cells [1]; A549
  ligand-induced DMR signal (second ligand panel): robust DMR signals

## O=S(=O)(c1cccc2cnccc12)N1CCCNCC1 [HA1077]
A549 cells [1]; A549, 10 μM, about 1 hr
  primary profile of the molecule (DMR signal triggered): N-DMR signal
A549 cells [2]; molecule 10 μM, 8 μM PMA, late DMR amplitude 50 min after stimulation
  modulation of the PMA-induced DMR response: +36%
A549 cells [2]; molecule 10 μM, 8 μM SLIGKV-amide, P-DMR amplitude 20 min after stimulation
  modulation of the SLIGKV-amide-induced DMR response: +22%
A549 cells [2]; molecule 10 μM, 10 μM histamine, amplitude 10 min after stimulation
  modulation of the histamine-induced DMR response (early P-DMR): +26%
A549 cells [2]; molecule 10 μM, 10 μM histamine, amplitude 30 min after stimulation
  modulation of the histamine-induced DMR response (late P-DMR): +55%
A549 cells [2]; molecule 10 μM, 16 μM forskolin, P-DMR amplitude 50 min after stimulation
  modulation of the forskolin-induced DMR response: +18%
A549 cells [2]; molecule 10 μM, 250 μg/ml poly(I:C), late DMR amplitude 50 min after stimulation
  modulation of the poly(I:C)-induced DMR response: +18%
A549 cells [2]; [8]
  effect on the PMA response (in words): significantly potentiated
  effect on the histamine response (in words): significantly potentiated
  effect on the pinacidil response (in words): almost completely attenuated

## N#CC(=C(/N)Sc1ccccc1N)/C(C#N)=C(\N)Sc1ccccc1N [U0126]
Quiescent A431 cells
  effect on the N-DMR of the EGF DMR signal (in words): significantly and selectively attenuated
  effect on the RP-DMR of the EGF DMR signal (in words): significantly and selectively attenuated

## O=c1ccn([C@@H]2O[C@H](COP(=O)(O)OP(=O)(O)OP(=O)(O)O)[C@@H](O)[C@H]2O)c(=O)[nH]1 [UTP]
A549 cells [1]; [4]
  ligand-induced DMR signal (GPCR ligand panel): robust DMR signals

## angiotensin
A549 cells [1]; [4]
  ligand-induced DMR signal (GPCR ligand panel): robust DMR signals
